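96-well plates; 48 h exposure; 5 concentrations. Endpoints by linear interpolation between flanking doses. Not reached: highest tested concentration assigned. At the GI50, growth is halved. TGI is the concentration that stops growth completely.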
Columns and labels:
Assay in all cases: inhibition of tumour cell growth, NCI panel, 48 h
EKVX NSCLC = tested on: EKVX NSCLC
SF-268 CNS = tested on: SF-268 CNS
NCI-H23 lung = tested on: NCI-H23 lung
A498 renal = tested on: A498 renal
PC-3 prostate = tested on: PC-3 prostate
T-47D breast = tested on: T-47D breast
SF-295 CNS = tested on: SF-295 CNS
SNB-75 CNS = tested on: SNB-75 CNS
U251 CNS = tested on: U251 CNS
OVCAR-4 ovarian = tested on: OVCAR-4 ovarian
786-0 renal = tested on: 786-0 renal
UACC-62 melanoma = tested on: UACC-62 melanoma
SN12C renal = tested on: SN12C renal
UACC-257 melanoma = tested on: UACC-257 melanoma
LOX IMVI melanoma = tested on: LOX IMVI melanoma
NCI-H522 lung = tested on: NCI-H522 lung
HCT-116 colon = tested on: HCT-116 colon
COLO 205 colon = tested on: COLO 205 colon
MALME-3M melanoma = tested on: MALME-3M melanoma
MOLT-4 leukemia = tested on: MOLT-4 leukemia
OVCAR-5 ovarian = tested on: OVCAR-5 ovarian
RXF 393 renal = tested on: RXF 393 renal
CAKI-1 renal = tested on: CAKI-1 renal
OVCAR-8 ovarian = tested on: OVCAR-8 ovarian
MCF7 breast = tested on: MCF7 breast
ACHN renal = tested on: ACHN renal
MDA-MB-435 = tested on: MDA-MB-435
SR leukemia = tested on: SR leukemia
NCI-H460 lung = tested on: NCI-H460 lung
RPMI-8226 leukemia = tested on: RPMI-8226 leukemia
SK-MEL-2 melanoma = tested on: SK-MEL-2 melanoma
OVCAR-3 ovarian = tested on: OVCAR-3 ovarian
BT-549 breast = tested on: BT-549 breast
HL-60(TB) leukemia = tested on: HL-60(TB) leukemia
UO-31 renal = tested on: UO-31 renal
SF-539 CNS = tested on: SF-539 CNS
SNB-19 CNS = tested on: SNB-19 CNS
HOP-62 NSCLC = tested on: HOP-62 NSCLC
SW-620 colon = tested on: SW-620 colon
SK-MEL-5 melanoma = tested on: SK-MEL-5 melanoma
SK-OV-3 ovarian = tested on: SK-OV-3 ovarian
DU-145 prostate = tested on: DU-145 prostate
SK-MEL-28 melanoma = tested on: SK-MEL-28 melanoma
HOP-92 NSCLC = tested on: HOP-92 NSCLC
NCI-H226 lung = tested on: NCI-H226 lung
HS 578T breast = tested on: HS 578T breast
TK-10 renal = tested on: TK-10 renal
KM12 colon = tested on: KM12 colon
M14 melanoma = tested on: M14 melanoma
K-562 leukemia = tested on: K-562 leukemia
A549 NSCLC = tested on: A549 NSCLC
HCT-15 colon = tested on: HCT-15 colon
HT29 colon = tested on: HT29 colon
NCI/ADR-RES ovarian = tested on: NCI/ADR-RES ovarian
MDA-MB-231 breast = tested on: MDA-MB-231 breast
IGROV1 ovarian = tested on: IGROV1 ovarian
HCC-2998 colon = tested on: HCC-2998 colon

COc1cc(/C=C/c2cc(/C=C/c3ccc(O)c(OC)c3)n(C(=O)Nc3ccc(C)cc3)n2)ccc1O
GI50 (EKVX NSCLC): 992 nM | TGI (EKVX NSCLC): 5020 nM | GI50 (SF-268 CNS): 628 nM | TGI (SF-268 CNS): 7440 nM | GI50 (NCI-H23 lung): 586 nM | TGI (NCI-H23 lung): 3990 nM | GI50 (A498 renal): 1430 nM | TGI (A498 renal): 4870 nM | GI50 (PC-3 prostate): 404 nM | TGI (PC-3 prostate): 2530 nM | GI50 (T-47D breast): 1140 nM | TGI (T-47D breast): 3330 nM | GI50 (SF-295 CNS): 1710 nM | TGI (SF-295 CNS): 6340 nM | GI50 (SNB-75 CNS): 321 nM | TGI (SNB-75 CNS): 1360 nM | GI50 (U251 CNS): 422 nM | TGI (U251 CNS): 3480 nM | GI50 (OVCAR-4 ovarian): 697 nM | TGI (OVCAR-4 ovarian): 5950 nM | GI50 (786-0 renal): 412 nM | TGI (786-0 renal): 1810 nM | GI50 (UACC-62 melanoma): 519 nM | TGI (UACC-62 melanoma): 2610 nM | GI50 (SN12C renal): 408 nM | TGI (SN12C renal): > 29900 nM | GI50 (UACC-257 melanoma): 1060 nM | TGI (UACC-257 melanoma): 4950 nM | GI50 (LOX IMVI melanoma): 501 nM | TGI (LOX IMVI melanoma): 2620 nM | GI50 (NCI-H522 lung): 235 nM | TGI (NCI-H522 lung): 909 nM | GI50 (HCT-116 colon): 296 nM | TGI (HCT-116 colon): 1530 nM | GI50 (COLO 205 colon): 1910 nM | TGI (COLO 205 colon): 3510 nM | GI50 (MALME-3M melanoma): 924 nM | TGI (MALME-3M melanoma): 3570 nM | GI50 (MOLT-4 leukemia): 291 nM | TGI (MOLT-4 leukemia): 1060 nM | GI50 (OVCAR-5 ovarian): 1890 nM | TGI (OVCAR-5 ovarian): 5890 nM | GI50 (RXF 393 renal): 381 nM | TGI (RXF 393 renal): 1410 nM | GI50 (CAKI-1 renal): 311 nM | TGI (CAKI-1 renal): 6950 nM | GI50 (OVCAR-8 ovarian): 465 nM | TGI (OVCAR-8 ovarian): 2590 nM | GI50 (MCF7 breast): 400 nM | TGI (MCF7 breast): 2970 nM | GI50 (ACHN renal): 396 nM | TGI (ACHN renal): 7420 nM | GI50 (MDA-MB-435): 115 nM | TGI (MDA-MB-435): 391 nM | GI50 (SR leukemia): 26.8 nM | TGI (SR leukemia): 150 nM | GI50 (NCI-H460 lung): 339 nM | TGI (NCI-H460 lung): 1860 nM | GI50 (RPMI-8226 leukemia): 261 nM | TGI (RPMI-8226 leukemia): 1340 nM | GI50 (SK-MEL-2 melanoma): 681 nM | TGI (SK-MEL-2 melanoma): 3970 nM | GI50 (OVCAR-3 ovarian): 417 nM | TGI (OVCAR-3 ovarian): 1990 nM | GI50 (BT-549 breast): 306 nM | TGI (BT-549 breast): 2340 nM | GI50 (HL-60(TB) leukemia): 261 nM | TGI (HL-60(TB) leukemia): 657 nM | GI50 (UO-31 renal): 272 nM | TGI (UO-31 renal): 1720 nM | GI50 (SF-539 CNS): 442 nM | TGI (SF-539 CNS): 2470 nM | GI50 (SNB-19 CNS): 873 nM | TGI (SNB-19 CNS): 9110 nM | GI50 (HOP-62 NSCLC): 759 nM | TGI (HOP-62 NSCLC): 2500 nM | GI50 (SW-620 colon): 465 nM | TGI (SW-620 colon): 3440 nM | GI50 (SK-MEL-5 melanoma): 306 nM | TGI (SK-MEL-5 melanoma): 1210 nM | GI50 (SK-OV-3 ovarian): 451 nM | TGI (SK-OV-3 ovarian): 1790 nM | GI50 (DU-145 prostate): 448 nM | TGI (DU-145 prostate): 2320 nM | GI50 (SK-MEL-28 melanoma): 797 nM | TGI (SK-MEL-28 melanoma): 6870 nM | GI50 (HOP-92 NSCLC): 682 nM | TGI (HOP-92 NSCLC): 4180 nM | GI50 (NCI-H226 lung): 1190 nM | TGI (NCI-H226 lung): 4820 nM | GI50 (HS 578T breast): 278 nM | TGI (HS 578T breast): 689 nM | GI50 (TK-10 renal): 874 nM | TGI (TK-10 renal): 5810 nM | GI50 (KM12 colon): 345 nM | TGI (KM12 colon): 3180 nM | GI50 (M14 melanoma): 287 nM | TGI (M14 melanoma): 1050 nM | GI50 (K-562 leukemia): 359 nM | GI50 (A549 NSCLC): 419 nM | TGI (A549 NSCLC): 4600 nM | GI50 (HCT-15 colon): 384 nM | TGI (HCT-15 colon): 5270 nM | GI50 (HT29 colon): 1930 nM | TGI (HT29 colon): 5190 nM | GI50 (NCI/ADR-RES ovarian): 429 nM | TGI (NCI/ADR-RES ovarian): > 100000 nM | GI50 (MDA-MB-231 breast): 1460 nM | TGI (MDA-MB-231 breast): 23000 nM | GI50 (IGROV1 ovarian): 667 nM | TGI (IGROV1 ovarian): 3940 nM | GI50 (HCC-2998 colon): 2120 nM | TGI (HCC-2998 colon): 9460 nM

O=[N+]([O-])c1ccc(/C=C(/c2ccc([N+](=O)[O-])o2)S(=O)(=O)c2ccccc2)cc1
TGI (SF-268 CNS): > 100000 nM | TGI (NCI-H23 lung): > 100000 nM | TGI (PC-3 prostate): > 100000 nM | TGI (T-47D breast): > 100000 nM | TGI (SF-295 CNS): > 100000 nM | TGI (SNB-75 CNS): > 100000 nM | TGI (U251 CNS): > 100000 nM | TGI (OVCAR-4 ovarian): > 100000 nM | TGI (786-0 renal): > 100000 nM | TGI (UACC-62 melanoma): 75700 nM | TGI (UACC-257 melanoma): > 100000 nM | TGI (NCI-H522 lung): > 100000 nM | TGI (HCT-116 colon): > 100000 nM | TGI (COLO 205 colon): > 100000 nM | TGI (MALME-3M melanoma): 87500 nM | TGI (MOLT-4 leukemia): 37500 nM | TGI (OVCAR-5 ovarian): > 100000 nM | TGI (RXF 393 renal): > 100000 nM | TGI (CAKI-1 renal): > 100000 nM | TGI (OVCAR-8 ovarian): > 100000 nM | TGI (MCF7 breast): > 100000 nM | TGI (ACHN renal): > 100000 nM | TGI (MDA-MB-435): > 100000 nM | TGI (SR leukemia): 36500 nM | TGI (NCI-H460 lung): > 100000 nM | TGI (RPMI-8226 leukemia): 31400 nM | TGI (SK-MEL-2 melanoma): > 100000 nM | TGI (OVCAR-3 ovarian): > 100000 nM | TGI (BT-549 breast): > 100000 nM | TGI (HL-60(TB) leukemia): 74100 nM | TGI (UO-31 renal): > 100000 nM | TGI (SF-539 CNS): 98300 nM | TGI (SNB-19 CNS): > 100000 nM | TGI (HOP-62 NSCLC): > 100000 nM | TGI (SW-620 colon): > 100000 nM | TGI (SK-MEL-5 melanoma): 34300 nM | TGI (SK-OV-3 ovarian): > 100000 nM | TGI (DU-145 prostate): > 100000 nM | TGI (SK-MEL-28 melanoma): > 100000 nM | TGI (HOP-92 NSCLC): > 100000 nM | TGI (NCI-H226 lung): 75000 nM | TGI (HS 578T breast): > 100000 nM | TGI (TK-10 renal): > 100000 nM | TGI (KM12 colon): > 100000 nM | TGI (M14 melanoma): > 100000 nM | TGI (K-562 leukemia): > 100000 nM | TGI (A549 NSCLC): > 100000 nM | TGI (HCT-15 colon): 88700 nM | TGI (HT29 colon): > 100000 nM | TGI (NCI/ADR-RES ovarian): > 100000 nM | TGI (MDA-MB-231 breast): 88200 nM | TGI (IGROV1 ovarian): > 100000 nM
